Laboratory results from patent US11059784B2, “Oxime ether compounds” (BRISTOL-MYERS SQUIBB COMPANY, priority 2017, dated 2021).

Columns and labels:
[1] = test system: blood lymphocytes; assay: Blood Lymphocyte Reduction (BLR) assay in rodent; format: in vivo, Lewis rats; settings: 24 hr post-dose; for Percent reduction vs. vehicle control: Table C study
[2] = Pulmonary Toxicity Assay (bronchoalveolar lavage protein); format: in vivo, rats; settings: 24 hr post-dose
Protocol: The analysis of protein levels in bronchoalveolar lavage (BAL) fluid obtained from an animal were used to gauge pulmonary side effects. Increased levels of protein in BAL fluid were indicative of undesired edematous pulmonary effects, such as pulmonary edema.
Example 3 was administered orally to rats at doses of 0.3, 1.0, 10, 30 mg/kg and 2-amino-2-[2-(4-octylphenyl)ethyl]-1,3-propanediol, hydrochloride (CAS: 162359-56-0) was administered at 3.0 mg/kg as a solution in the vehicle. At 24 hours post dose, the rats were then euthanized by barbiturate overdose. The trachea was exposed by incision of the overlying skin and then cannulated. The lungs were lavaged with 4 mL of saline. The recovered lavage fluid was assayed for total protein content. The concentration of the BAL protein in the recovered BAL fluid was determined on an Advia 1800 Chemistry Analyzer (Siemens Healthcare Diagnostics). The results represent the average results of all animals within each treatment group (n=2-4).

[3] = target: S1P3 (Homo sapiens (Human), UniProt Q99500); assay: Receptor [35S] GTPγS Binding Assay, S1P3; format: biochemical; settings: membranes from EDG3-Gal5-bla HEK293T cells
Protocol: (§1) Receptor [^35S] GTPγS Binding Assays:
(§2) Compounds were loaded in a 384 Falcon v-bottom plate (0.5 μl/well in an 11 point, 3-fold dilution). Membranes prepared from S1P1/CHO cells or EDG3-Gal5-bla HEK293T cells (EDG3 equivalent S1P3) were added to the compound plate ([…], final protein 3 μg/well) with MULTIDROP®. [^35S]GTP (1250 Ci/mmol, Perkin Elmer) was diluted in assay buffer: 20 mM HEPES, pH7.5, 10 mM MgCl2, 150 mM NaCl, 1 mM EGTA (ethylene glycol tetraacetic acid), 1 mM DTT (Dithiothreitol), 10 μM GDP, 0.1% fatty acid free BSA, and 10 μg/ml Saponin to 0.4 nM. 40 μl of the [35S] GTP solution was added to the compound plate with a final concentration of 0.2 nM. The reaction was kept at room temperature for 45 min. At the end of incubation, all the mixtures in the compound plate were transferred to Millipore 384-well FB filter plates via the VELOCITY11 ® Vprep liquid handler. The filter plate was washed with water 4 times by using the manifold Embla plate washer and dried at 60° C. for 45 min. MicroScint 20 scintillation fluid (30 μl) was added to each well for counting on the Packard TOPCOUNT®. EC50 is defined as the agonist concentration that corresponds to 50% of the Ymax (maximal response) obtained for each individual compound tested.

[4] = target: T1, S1P1 (Homo sapiens (Human), UniProt P21453); assay: Receptor [35S] GTPγS Binding Assay, S1P1; format: biochemical; settings: membranes from S1P1/CHO cells
Protocol: as §1, §2
A smaller value for GTPγS S1P1 EC50 value indicated greater activity for the compound in the GTPγS S1P1 binding assay. Thus the compounds of the present invention may be used in treating, preventing, or curing various S1P1 receptor-related conditions. The compounds have potential use in treating, preventing, or curing autoimmune and inflammatory diseases such as multiple sclerosis, rheumatoid arthritis, inflammatory bowel disease, lupus, psoriasis, or minimizing or reducing rejection of transplanted organs.

[5] = target: T1, S1P1; assay: S1P1 Binding Assay (33P-S1P ligand competition, CHO membranes); settings: membranes from CHO cells expressing human S1P1
Protocol: Membranes were prepared from CHO cells expressing human S1P1. Cells pellets (1×10^9 cells/pellet) were suspended in buffer containing 20 mM HEPES (4-(2-hydroxyethyl)-1-piperazineethanesulfonic acid), pH 7.5, 50 mM NaCl, 2 mM EDTA (ethylenediamine tetraacetic acid) and Protease Inhibitor cocktail (Roche), and disrupted on ice using the Polytron homogenizer. The homogenate was centrifuged at 20,000 rpm (48,000 g) and the supernatant was discarded. The membrane pellets were resuspended in buffer containing 50 mM HEPES, pH 7.5, 100 mM NaCl, 1 mM MgCl2, 2 mM EDTA and stored in aliquots at −80° C. after protein concentration determination.
Membranes (2 μg/well) and 0.03 nM final concentration of ^33P-S1P ligand (1 mCi/ml, Perkin Elmer or American Radiolabeled Chemicals) diluted in assay buffer (50 mM HEPES, pH7.4, 5 mM MgCl2, 1 mM CaCl2), 0.5% fatty acid free BSA (bovine serum albumin), 1 mM NaF) were added to the compound plates (384 Falcon v-bottom plate (0.5 μl/well in a 11 point, 3-fold dilution). Binding was performed for 45 minutes at room temperature, terminated by collecting the membranes onto 384-well Millipore FB filter plates, and radioactivity was measured by TOPCOUNT®. The competition data of the test compounds over a range of concentrations was plotted as percentage inhibition of radioligand specific binding. The IC50 is defined as the concentration of competing ligand needed to reduce specific binding by 50%.

[6] = test system: blood lymphocytes; assay: Blood Lymphocyte Reduction (BLR) assay in rodent; format: in vivo, Lewis rats; settings: 24 hr post-dose, Table B study; for Percent reduction vs. control: hydrochloride
Protocol: Blood Lymphocyte Reduction (BLR) assay in rodent:
Lewis rats were dosed orally with vehicle alone (polyethylene glycol 300, “PEG300”) or with the comparative compound 2-amino-2-[2-(4-octylphenyl)ethyl]-1,3-propanediol, hydrochloride (“FTY” CAS: […]) as a solution in the vehicle at doses of 0.1 mg/kg, 0.5 mg/kg and 3.0 mg/kg. The results are provided in Table Band the level of lymphocyte reduction at 24 hours post-dose was maximal at 3.0 mg/kg. The percent reduction in lymphocytes is dose-related but the relationship is not linear, with non-proportional increases in dose being required to elicit sequentially greater reductions in lymphocyte counts.

S1P3, sequence (Q99500 whole entry): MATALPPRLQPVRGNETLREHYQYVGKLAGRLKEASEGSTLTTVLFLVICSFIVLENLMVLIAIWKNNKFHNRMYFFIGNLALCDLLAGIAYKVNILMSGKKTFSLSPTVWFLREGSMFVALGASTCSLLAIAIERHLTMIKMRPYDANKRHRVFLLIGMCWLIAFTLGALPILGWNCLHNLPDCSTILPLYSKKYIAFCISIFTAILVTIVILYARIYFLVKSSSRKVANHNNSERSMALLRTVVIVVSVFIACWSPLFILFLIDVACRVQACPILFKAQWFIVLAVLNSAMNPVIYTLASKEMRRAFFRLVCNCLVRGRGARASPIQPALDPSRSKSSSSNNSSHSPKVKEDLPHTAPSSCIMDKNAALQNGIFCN
T1 sequence (P21453 whole entry): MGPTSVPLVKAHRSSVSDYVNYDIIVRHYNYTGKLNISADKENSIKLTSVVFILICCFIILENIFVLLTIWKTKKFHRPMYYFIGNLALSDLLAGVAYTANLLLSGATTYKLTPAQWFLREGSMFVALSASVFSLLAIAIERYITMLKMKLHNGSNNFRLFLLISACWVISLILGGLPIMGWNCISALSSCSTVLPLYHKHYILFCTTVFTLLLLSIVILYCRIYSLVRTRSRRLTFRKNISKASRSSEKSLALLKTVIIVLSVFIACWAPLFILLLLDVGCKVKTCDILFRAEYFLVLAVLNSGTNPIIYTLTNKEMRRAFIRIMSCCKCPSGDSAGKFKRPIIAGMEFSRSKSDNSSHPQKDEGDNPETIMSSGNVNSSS

EC50 [3] | EC50 [4] | IC50 [5] | SMILES | also measured
– | – | – | CC(=NOCCc1ccccc1)c1ccc(C2CCC(N)(CO)C2)cc1.Cl (centres unmarked) [Example 3, 1-(4-(3-amino-3-(hydroxymethyl)cyclopentyl)phenyl)ethanone O-phenethyl Oxime] | Percent reduction vs. vehicle control ([1]; 0.3 mg/kg): 29%; Percent reduction vs. vehicle control ([1]; 1 mg/kg): 62%; level of lymphocyte reduction (in words) ([1]; 10 mg/kg and 30 mg/kg): maximal level of lymphocyte reduction comparable to the reduction shown by FTY; Percent reduction vs. vehicle control ([1]; 10 mg/kg): 85%; Percent reduction vs. vehicle control ([1]; 30 mg/kg): 85%; Relative BAL protein vs. control ([2]; 0.3 mg/kg oral): 0.8; Relative BAL protein vs. control ([2]; 1 mg/kg oral): 0.8; Relative BAL protein vs. control ([2]; 10 mg/kg oral): 1.2; Relative BAL protein vs. control ([2]; 30 mg/kg oral): 1.3
> 60000 nM | 20.3 nM | 15.1 nM | CC(=NOCC1CCCCC1)c1ccc([C@@H]2CC[C@](N)(COP(=O)(O)O)C2)cc1 [Example 44] | –
> 60000 nM | 5.6 nM | 2.7 nM | CC(=NOCc1ccc(C(F)(F)F)cc1)c1ccc([C@@H]2CC[C@](N)(COP(=O)(O)O)C2)cc1 [Example 45, ((1R,3R)-1-amino-3-(4-(1-(((4-(trifluoromethyl)benzyl)oxy)imino)ethyl)phenyl)cyclopentyl)methyl dihydrogen phosphate] | –
> 60000 nM | 11.2 nM | 5.2 nM | CC(=NOCCOc1ccccc1)c1ccc([C@@H]2CC[C@](N)(COP(=O)(O)O)C2)cc1 [Example 46, ((1R,3R)-1-amino-3-(4-(1-((2-phenoxyethoxy)imino)ethyl)phenyl)cyclopentyl) methyl dihydrogen phosphate] | –
> 60000 nM | 630 nM | 563 nM | COc1cccc(CO/N=C(\C)c2ccc([C@@H]3CC[C@](N)(COP(=O)(O)O)C3)cc2)c1 [Example 50, ((1R,3R)-1-amino-3-(4-((E)-1-(((3-methoxybenzyl)oxy)imino)ethyl)phenyl)cyclopentyl) methyl dihydrogen phosphate] | –
> 30000 nM | 1.1 nM | 31.9 nM | CC(=NOCCCc1ccccc1)c1ccc([C@H]2CC[C@](N)(COP(=O)(O)O)C2)cc1 [Example 52] | –
> 60000 nM | 324 nM | 1870 nM | C/C(=N\OCCCc1ccccc1)c1ccc(C(=O)N2CCC(N)(COP(=O)(O)O)CC2)cc1 [Example 57, (4-amino-1-(4-(1-((3-phenylpropoxy)imino)ethyl)benzoyl)piperidin-4-yl)methyl dihydrogen phosphate] | –
> 3120 nM | 60.8 nM | 10.7 nM | C/C(=N\OCc1ccc(C2CCCCC2)c(C(F)(F)F)c1)c1ccc(C(=O)N2CCC(N)(COP(=O)(O)O)CC2)cc1 [Example 58, (E)-(4-amino-1-(4-(1-(((4-cyclohexyl-3-(trifluoromethyl)benzyl)oxy)imino)ethyl)benzoyl)piperidin-4-yl)methyl dihydrogen phosphate] | –
> 6250 nM | 626 nM | 1990 nM | NC1(COP(=O)(O)O)CCN(C(=O)c2ccc(/C(=N/OCCCc3ccccc3)C(F)(F)F)cc2)C1 (centres unmarked) [Example 65, (Z)-(3-amino-1-(4-(2,2,2-trifluoro-1-((3-phenylpropoxy)imino)ethyl)benzoyl)pyrrolidin-3-yl)methyl dihydrogen phosphate] | –
> 18000 nM | 406 nM | 918 nM | C/C(=N\OCc1ccc(C2CCCCC2)c(C(F)(F)F)c1)c1ccc(S(=O)(=O)N2CCC(N)(COP(=O)(O)O)CC2)cc1 [Example 70, (E)-(4-amino-1-((4-(1-(((4-cyclohexyl-3-(trifluoromethyl)benzyl)oxy)imino)ethyl)phenyl)sulfonyl)piperidin-4-yl) methyl dihydrogen phosphate] | –
> 18000 nM | 242 nM | 219 nM | C/C(=N\OCCCc1ccccc1)c1ccc(S(=O)(=O)N2CCC(N)(COP(=O)(O)O)CC2)cc1 [Example 71, (E)-(4-amino-1-((4-(1-((3-phenylpropoxy)imino)ethyl)phenyl)sulfonyl)piperidin-4-yl)methyl dihydrogen phosphate] | –
> 30000 nM | 91.5 nM | 61.6 nM | C/C(=N\OCCc1ccccc1)c1ccc([C@@H]2CC[C@](N)(COP(=O)(O)O)C2)cc1 [Example 72, ((1R,3R)-1-amino-3-(4-((E)-1-(phenethoxyimino)ethyl)phenyl)cyclopentyl)methyl dihydrogen phosphate] | –
– | – | – | CCCCCCCCc1ccc(CCC(N)(CO)CO)cc1.Cl [FTY, 2-amino-2-[2-(4-octylphenyl)ethyl]-1,3-propanediol, hydrochloride] | Rat Blood Lymphocyte Reduction Assay, Compound Mean ([6]; 0.1 mg/kg oral): 2.78; Percent reduction vs. control ([6]; 0.1 mg/kg oral): 69%; Percent reduction vs. control ([6]; 0.1 mg/kg oral, listed as 2-amino-2-[2-(4-octylphenl)pethyl]-1,3-propanediol): 69%; Rat Blood Lymphocyte Reduction Assay, Compound Mean ([6]; 0.5 mg/kg oral): 1.64; Percent reduction vs. control ([6]; 0.5 mg/kg oral): 82%; Percent reduction vs. control ([6]; 0.5 mg/kg oral, listed as 2-amino-2-[2-(4-octylphenl)pethyl]-1,3-propanediol): 82%; Rat Blood Lymphocyte Reduction Assay, Compound Mean ([6]; 3.0 mg/kg oral): 1.02; Percent reduction vs. control ([6]; 3.0 mg/kg oral): 89%; Percent reduction vs. control ([6]; 3.0 mg/kg oral, listed as 2-amino-2-[2-(4-octylphenl)pethyl]-1,3-propanediol): 89%; Percent reduction vs. vehicle control ([1]; 3 mg/kg): 87%; Relative BAL protein vs. control ([2]; 3 mg/kg oral): 1.8
